Source: the supplement of paper PMC10307832

Legend:
Assay in all cases: relative viability (nuclei count vs DMSO), 5 days (fraction); higher = more cells survive
IU1-47 + Phenformin = compound: CC1=CC(=C(N1C2=CC=C(C=C2)Cl)C)C(=O)CN3CCCCC3 [IU1-47] + N=C(N)NC(=N)NCCc1ccccc1 [Phenformin] (partner 250 µM)
How it was run: (§1)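 Relative viability is defined as nuclei in treated wells over nuclei in vehicle wells. Duplicate plates were run and medians reported. Lung cancer cell lines in 1536-well plates were dosed by pin tool one day after seeding, with one drug or with a fixed anchor-drug dose plus five library-drug doses (not always all listed) in √10 steps, and nuclei were counted after 5 days.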

FG-4592 + Luminespib = compound: Cc1nc(C(=O)NCC(=O)O)c(O)c2ccc(Oc3ccccc3)cc12 [FG-4592] + CCNC(=O)c1noc(-c2cc(C(C)C)c(O)cc2O)c1-c1ccc(CN2CCOCC2)cc1 [Luminespib] (partner 0.01 µM)
How it was run: as §1

FG-4592 + Alpelisib = compound: Cc1nc(C(=O)NCC(=O)O)c(O)c2ccc(Oc3ccccc3)cc12 [FG-4592] + Cc1nc(NC(=O)N2CCC[C@H]2C(N)=O)sc1-c1ccnc(C(C)(C)C(F)(F)F)c1 [Alpelisib] (partner 2 µM)
How it was run: as §1

IU1-47 + Navitoclax = compound: CC1=CC(=C(N1C2=CC=C(C=C2)Cl)C)C(=O)CN3CCCCC3 [IU1-47] + CC1(C)CCC(c2ccc(Cl)cc2)=C(CN2CCN(c3ccc(C(=O)NS(=O)(=O)c4ccc(N[C@H](CCN5CCOCC5)CSc5ccccc5)c(S(=O)(=O)C(F)(F)F)c4)cc3)CC2)C1 [Navitoclax] (partner 0.5 µM)
How it was run: as §1

Cell Line | relative viability (IU1-47 + Phenformin; first compound 0.08 µM) | relative viability (IU1-47 + Phenformin; first compound 0.253 µM) | relative viability (IU1-47 + Phenformin; first compound 0.8 µM) | relative viability (IU1-47 + Phenformin; first compound 2.53 µM) | relative viability (IU1-47 + Phenformin; first compound 8 µM) | relative viability (FG-4592 + Luminespib; first compound 0.08 µM) | relative viability (FG-4592 + Luminespib; first compound 0.253 µM) | relative viability (FG-4592 + Luminespib; first compound 0.8 µM) | relative viability (FG-4592 + Luminespib; first compound 2.53 µM) | relative viability (FG-4592 + Luminespib; first compound 8 µM) | relative viability (FG-4592 + Alpelisib; first compound 0.08 µM) | relative viability (FG-4592 + Alpelisib; first compound 0.253 µM) | relative viability (FG-4592 + Alpelisib; first compound 0.8 µM) | relative viability (FG-4592 + Alpelisib; first compound 2.53 µM) | relative viability (FG-4592 + Alpelisib; first compound 8 µM) | relative viability (IU1-47 + Navitoclax; first compound 0.08 µM) | relative viability (IU1-47 + Navitoclax; first compound 0.253 µM) | relative viability (IU1-47 + Navitoclax; first compound 0.8 µM) | relative viability (IU1-47 + Navitoclax; first compound 8 µM) | relative viability (IU1-47 + Navitoclax; first compound 2.53 µM)
PC-3 [JPC-3] | 0.498 | 0.463 | 0.44 | 0.496 | 0.429 | 0.735 | 0.639 | 0.817 | 0.798 | 0.575 | 0.966 | 0.972 | 1.1 | 1 | 1.03 | 0.834 | 0.817 | 0.804 | 0.788 | –
PC-14 | 0.686 | 0.611 | 0.633 | 0.664 | 0.406 | 0.136 | 0.177 | 0.143 | 0.197 | 0.16 | 0.979 | 1 | 0.988 | 0.855 | 0.956 | 1.22 | 1.14 | 1.16 | 0.932 | 1.06
RERF-LC-KJ | 0.415 | 0.423 | 0.421 | 0.493 | 0.411 | 1.23 | 1.24 | 1.45 | 1.17 | 0.991 | 0.804 | 0.749 | 0.723 | 0.651 | 0.774 | 0.939 | 0.812 | 0.839 | 0.879 | 1.14
SK-LU-1 | 0.574 | 0.507 | 0.487 | 0.581 | 0.419 | 0.184 | 0.174 | 0.187 | 0.223 | 0.202 | 1.02 | 0.925 | 1.07 | – | 0.917 | 0.853 | 0.855 | 0.819 | 0.847 | 0.839
SK-MES-1 | 0.729 | 0.76 | 0.66 | 0.662 | 0.575 | 0.837 | 0.721 | 0.683 | 0.794 | 0.785 | 0.953 | 0.892 | 0.85 | 0.853 | 0.773 | 1.21 | 1.34 | 1.27 | 1.17 | 1.29
SW 1573 | 0.394 | 0.353 | 0.367 | 0.421 | 0.382 | 0.224 | 0.547 | 0.186 | 0.415 | 0.223 | 0.781 | 0.733 | 0.852 | 0.857 | 0.616 | 1.03 | 1.14 | 1.04 | 1.09 | 0.893
